Results as given in patent US7402611B1, “Use of amino acids for making medicines for treating to insulin-resistance” (Innodia Inc., priority 1999, dated 2008).
“Also recorded” adds a separate entry of the source.

Tests used:
PI 3-kinase [1] = test: Basal PI 3-kinase activity of the liver of obese Zucker rats (fa/fa) after chronic administration; assay type: in vivo, rat; settings: 50 mg/kg i.p. for 4 weeks, sacrificed 17 hours after last administration
Protocol: (§1) For the determination of the PI 3-kinase activity, the tissues are ground in a buffer containing protease and phosphatase inhibitors as well as a solubilising agent (Triton), as described by Taouis et al., J. Biol. Chem., 269, 14912, 1994. After solubilisation, the supernatants are immunoprecipitated with anti-IRS-1 and the PI 3-kinase activity is measured in the immunoprecipitate. In fact, the reaction is initiated by the addition of an artificial substrate of the enzyme: phosphatidylinositol (PI) and (^33P) gamma ATP. The product of the reaction is subjected to thin layer chromatography (TLC plate) and the levels of phosphorylation of PI are measured by a STORM phospho-imager (Molecular Dynamics). The activity is expressed in arbitrary units given by the apparatus (conversion of the radioactivity to luminescence by means of a laser beam). During chronic administration for 4 weeks of 4-OH-Ile (50 mg/kg by intraperitoneal route) in obese Zucker rats (fa/fa), the PI 3-kinase activity of the liver was measured at the end of the treatment.

PI 3-kinase [2] = test: PI 3-kinase activity of the muscle in type 2 diabetic rats; assay type: in vivo, rat; settings: muscle of rats with type 2 diabetes; p<0.01 for 4-OH-Ile
Protocol: (§2) For the determination of the PI 3-kinase activity, the tissues are ground in a buffer containing protease and phosphatase inhibitors as well as a solubilising agent (Triton), as described by Taouis et al., J. Biol. Chem., 269, 14912, 1994. After solubilisation, the supernatants are immunoprecipitated with anti-IRS-1 and the PI 3-kinase activity is measured in the immunoprecipitate. In fact, the reaction is initiated by the addition of an artificial substrate of the enzyme: phosphatidylinositol (PI) and (^33P) gamma ATP. The product of the reaction is subjected to thin layer chromatography (TLC plate) and the levels of phosphorylation of PI are measured by a STORM phospho-imager (Molecular Dynamics). The activity is expressed in arbitrary units given by the apparatus (conversion of the radioactivity to luminescence by means of a laser beam). Comparison of the Effects of Insulin and Those of 4-OH-Ile on the PI 3-Kinase Activity of the Muscle and the Liver Removed from Rats with Type 2 Diabetes (Masiello et al., Diabetes 47, 224, 1998)

PI 3-kinase [3] = test: PI 3-kinase activity of muscle (anti-IRS-1 immunoprecipitates), normal rats; assay type: in vivo, rat; settings: normal Wistar rats, i.p., insulin 100 U/kg, 4-OH-Ile 18 mg/kg, 15 min after injection
Protocol: (§3) The PI 3-kinase activity was measured on immunoprecipitates carried out with the anti-IRS-1 antibody. This made it possible to determine the enzymatic activity associated with the action of insulin and to compare it to the action induced by 4-OH-Ile. Normal male Wistar rats (IFFA CREDO strain, France) received, via intraperitoneal injection, either ordinary insulin on its own (100 U/kg) or 4-OH-Ile on its own (18 mg/kg), or insulin combined with 4-OH-Ile in the same doses. The control rats received sodium chloride at 9‰ via intraperitoneal route. Fifteen minutes after the injection, the animals were sacrificed and the peripheral tissues (liver, muscle) were immediately removed and frozen in liquid nitrogen. […] After solubilisation, the supernatants are immunoprecipitated with anti-IRS-1 and the PI 3-kinase activity is measured in the immunoprecipitate. […] The product of the reaction is subjected to thin layer chromatography (TLC plate) and the levels of phosphorylation of PI are measured by a STORM phospho-imager (Molecular Dynamics). The activity is expressed in arbitrary units given by the apparatus (conversion of the radioactivity to luminescence by means of a laser beam).

Water solubility = assay type: physicochemical
PI 3-kinase [4] = test: PI 3-kinase activity of the liver (anti-IRS-1 immunoprecipitates), normal rats; assay type: in vivo, rat; settings: normal Wistar rats, i.p., insulin 100 U/kg, 4-OH-Ile 18 mg/kg, 15 min after injection; p<0.05
Protocol: as §3

[5] = Basal insulinemia and glycemia during chronic administration in type 2 diabetic rats; assay type: in vivo, rat
Protocol: The beneficial effect of 4-hydroxyisoleucine against relative hyperinsulinemia has been researched in vivo during chronic administration (for one month) of plant amino acid (25 mg/kg/day, by intraperitoneal route) on rats made non insulin dependant diabetic (type 2 diabetes) by joint injections of nicotinamide and streptozotocin (Masiello et al., Diabetes, 47, 224, 1998). Regular blood samples are taken from the caudal vein of the rats made it possible to evaluate the level of plasmatic insulin using a radio-immunological method (Herbert et al., J. Clin. Endocr., 25. 1375, 1965), 15 hours after injection of the product which took place at 5.30 pm. In these same samples, the plasmatic glucose level was measured using an enzymatic method (Trinder P., J. Clin. Pathol. 22, 158, 1969).

insulin receptor = test: Bonding of insulin on its receptor in hepatic LMH cell lines; assay type: binding; settings: LMH cells (chicken hepatocarcinoma), competition with insulin
From the text: FIG. 4, the bonding of insulin on its receptor in hepatic LMH cell lines, In FIG. 4 the comparative results concerning the bonding of isoleucine and 4-OH-Ile are given. The LMH cells used in these trials are from chicken hepatocarcinoma (Kawaguchi T. et al., Cancer Res., 47, 4460, 1987).

[6] = system: phosphatase activity associated with IRS-1; test: Phosphatase activity associated with IRS-1 in the liver of a normal rat; assay type: biochemical; settings: 200 μmol/1, p<0.05
Protocol: The phosphatase activity was measured on the immunoprecipitates carried out with the anti-IRS-1 antibody and insulin anti-receptor. The solubilisation protocol is the same as that for PI 3-kinase following the methodology described by Taouis et al. (J. Biol. Chem., 269, 14912, 1994). After immunoprecipitation, the phosphatase activity was measured according to the method described by Chen. et al. (J. Biol. Chem., 272, 8026, 1997). With the aim of better locating the action site of the 4-OH-Ile, its impact on phosphatase activity was studied. The phosphatase activity associated with IRS-1 was measured.

[7] = system: PI 3-kinase associated with the insulin receptor; test: PI 3-kinase activity associated with the insulin receptor in the liver of a normal rat; assay type: in vivo; settings: 18 mg/kg I.P., p<0.05
Protocol: as §1, with “The PI 3-kinase activities of the PDGF receptor and of the insulin receptor in the presence or the absence” for “During chronic administration for 4 weeks”, “(18” for “(50”, “I.P.) were compared following” for “by intraperitoneal route) in obese Zucker rats (fa/fa),”, “protocol already described.” for “PI 3-kinase activity of the liver was measured at the end of the treatment.”

insulin receptor (IR) = test: Phosphorylation of the insulin receptor in the liver of normal rats; assay type: in vivo; settings: normal rat liver, single injection 200 μg/kg I.P.; comparable to insulin
PI 3-kinase [8] = test: PI 3-kinase activity of the liver in type 2 diabetic rats; assay type: in vivo, rat; settings: liver of rats with type 2 diabetes; p<0.05 for 4-OH-Ile
Protocol: as §2

IRS-1 = test: Phosphorylation of IRS-1 in the liver of normal rats; assay type: in vivo; settings: normal rat liver, single injection 200 μg/kg I.P.; comparable to insulin

| Compound | basal activity of PI 3-kinase of the liver (PI 3-kinase [1]) | muscular PI 3-kinase activity (PI 3-kinase [2]) | PI 3-kinase activity of muscle (PI 3-kinase [3]) | solubility in water (Water solubility) | hepatic PI 3-kinase activity (PI 3-kinase [4]) | insulinemia (plasmatic insulin) ([5]; type 2 diabetic rats (nicotinamide/streptozotocin), 25 mg/kg/day i.p. for one month, 15 hours after injection) | glycemia ([5]; type 2 diabetic rats, 25 mg/kg/day i.p., at the end of the treatment) | plasmatic insulin after cessation of the treatment ([5]; type 2 diabetic rats, after cessation of 25 mg/kg/day i.p. treatment) | bonding to the insulin membrane receptor of the hepatocyte (insulin receptor) | phosphatase activity associated with IRS-1 [6] | PI 3-kinase activity associated with the insulin receptor [7] | activation (phosphorylation) of the insulin receptor (IR) (insulin receptor (IR)) | hepatic PI 3-kinase activity (PI 3-kinase [8]) | activation (phosphorylation) of IRS-1 (IRS-1) |
| --- | --- | --- | --- | --- | --- | --- | --- | --- | --- | --- | --- | --- | --- | --- |
| CC(O)C(C)C(N)C(=O)O (stereo not drawn) [4-OH-Ile, 4-hydroxyisoleucine] | is increased | the same effect as insulin with the same intensity; also recorded: significantly stimulates | has a comparable effect | hydrosoluble | significantly stimulate | significantly lowering | slight reduction | again rises to regain values close to those observed before the treatment | has no bond with this receptor; also recorded: does not recognise the insulin receptor | significantly inhibits | the only one increased | induces the activation | the same effect as insulin with the same intensity; also recorded: significantly stimulates | induces the activation |
| insulin [reference compound] |  | activates | clearly stimulates |  | significantly stimulate |  |  |  |  |  |  |  | activates |  |
